# Test results reported in paper doi:10.1101/2024.05.17.594634, “Protein Structure Inspired Drug Discovery” (bioRxiv, 2024).
# Columns and labels:
# melanoma cell lines = test: NCI-60 cell line screen, melanoma cell lines; type: cell-based, human; settings: 10 μM X 48 hours
# Procedure: Above findings support the importance of Dxr2 and FolC2 sites, and of Dxr2-017 and FolC2-001 compounds, respectively. The predicted poses of Dxr2-017 bound to the Dxr2 site and FolC2-001 bound to the FolC2 site are shown (Fig 7). The NCI-60 cell line screen evaluates compound growth inhibition and cell toxicity in a highly standardized manner across 60 different cell lines. Dxr2-017 and FolC2-001 were evaluated in this assay (S5 Fig). NCI-60 screens evaluate compounds at 10 μM X 48 hours. […] Of high interest, in the NCI-60 screen Dxr2-017 had relatively high activity against melanoma cell lines, inducing cell death in 5 cell lines ranging from 25–65%, and inhibiting growth in 4 cell lines ranging from 76–96%. Its impact on cell death represents the most striking relative difference in response across cell lines.
# M14 cells = test: Western blot for cleaved caspase 3, M14; type: cell-based, human; settings: 3 days, up to 10 μM
# Procedure: (§1) Fig 8. Dxr2-017 inhibits melanoma cell growth through induction of anoikis. (A) Inhibition of melanoma cell growth. Cells were treated with different concentrations of Dxr2-017 and formation of colonies at eight days depicted. Data are expressed as percent of untreated control and are the mean ± SEM (N=3 replicates) of a single experiment. (B) No effect on cycle progression. M14 and SK-MEL-5 cells were treated for 8 days with 20 and 50 nM Dxr2-017, respectively, and phase of cell cycle determined by flow cytometry. Data are the mean ± SEM (N=3). *denotes P-value ≤0.05. (C) Transition to floating cells. Cells were treated for three days with different Dxr2-017 concentrations. Depicted are representative light photomicrographs at 20X; scale bar is150 μm. Blue and green arrows denote adherent and floating cells, respectively. (D) Cleaved caspase 3 is induced in floating cells. Cells were treated for 3 days, cell lysate from only adherent cells, or from adherent and floating cells combined, was probed by Western blot for cleaved caspase 3. All experiments were repeated at separate times, yielding similar results.
# (§2) We then assessed whether Dxr2-017 was inducing apoptosis. […] These findings raised the possibility that Dxr2-017 was inducing anoikis, a process in which programmed cell death occurs upon cell detachment.[72, 73] […]
# SK-MEL-5 cells = test: Western blot for cleaved caspase 3, SK-MEL-5; type: cell-based, human; settings: 3 days, up to 20 μM
# Procedure: as §1, §2
# [1] = test system: human melanoma SK-MEL-5 cells; test: Eight-day colony formation assay, SK-MEL-5; type: cell-based
# Procedure: We next evaluated the effect of Dxr2-017 on human melanoma M14 and SK-MEL-5 cell lines in eight-day assays (Fig 8A).
# as §1, with “Cells were treated for 3 days, cell lysate from only adherent cells, or from adherent and floating cells combined, was probed by Western blot for cleaved caspase 3. All experiments were repeated at separate times, yielding similar results.” left out
# Eight-day colony formation assays of cancer cells were performed as described by us.[87] Briefly, 0.5–1.0 × 10^3 cells were seeded into a 12 well plate, after 24 hours compound added and eight days later colonies (of 3 or more cells) were scored after trypan blue staining. […]
# human CD34+ stem cells = test: Bone marrow stem cell (hematopoietic) colony formation assay; type: cell-based
# Procedure: In parallel with measuring growth inhibition of cancer cell growth, we measured effect on human hematopoietic stem cells. Hematopoietic stem cells reside in the bone marrow and are the source of mature cells present in blood.[66] Bone marrow is one of the most sensitive organs in the body to drug toxicity, especially so for anticancer drugs where it can approach 100%.[67–69] Bone marrow toxicity was measured by performing hematopoietic colony formation assays on human CD34+ stem cells. The stem cell nature of this assay permitted assessment of trilineage colony formation: granulocytic (white blood cells), erythrocytic (red blood cells) and megakaryocytic (platelets), measured by the formation of CFU-GM (colony-forming-granulocyte-macrophage), BFU-E (erythroid burst-forming unites) and CFU-GEMM (colony-forming unit-granulocyte, erythrocyte, monocyte, megakaryocyte) colonies, respectively. Two measurements were taken. Total colonies at eight days were measured, thereby matching the eight-day time frame of cancer cell colony formation assays. At fourteen days, individual colonies have differentiated, permitting quantification of each lineage. Human hematopoietic stem cell trilineage colony formation assays were performed as previously described by us.[65] Briefly, human cord blood CD34+ cells (catalog #: 70008.5) were purchased from StemCell Technology Inc., and seeded at 1 × 10^4 cells per 35 mm dish. Cells were cultured in MethoCult™ Express (StemCell Technologies, Inc.) semisolid media, per manufacturer’s instructions, in the presence of compound or vehicle control. At eight days colonies, i.e., groups of ≥ 10 cells, were counted. At fourteen days, individual colonies of BFU-E, CFU-GM and CFU-GEMM were identified based on manufacturers’ morphologic characterization criteria. Assays were run in replicates of N = 2; some were run in replicates of N = 3, as denoted.
smiles,measurement,setting,value
c1ccc2sc(-c3ccc(CNc4ccc5nnnn5n4)o3)nc2c1 [Dxr2-017],cell death,melanoma cell lines; range over 5 melanoma cell lines,25–65%
same,inhibition at 10 µM,"melanoma cell lines; Homo sapiens, range over 4 melanoma cell lines, read-out: growth inhibition",76 to 96%
same,"cleaved caspase 3, adherent cells only",M14 cells,did not detect any induction of cleaved caspase 3
same,"cleaved caspase 3, floating and adherent cells combined",M14 cells,clear formation
same,"cleaved caspase 3, adherent cells only",SK-MEL-5 cells,did not detect any induction of cleaved caspase 3
same,"cleaved caspase 3, floating and adherent cells combined",SK-MEL-5 cells,clear formation
same,IC50,"[1]; Homo sapiens, 192 h, SK-MEL-5, eight-day assay, mean ± SEM",51.7 ± 16.4 nM
same,fold efficacy versus bone marrow stem cells,[1]; SK-MEL-5 IC50 compared to 40 μM eight-day bone marrow treatment,> 750 fold
same,"mean number of colonies, % of control, 14 day","human CD34+ stem cells; 40 μM compound, 14 days, mean N=2",57 % of control
same,"mean number of colonies, % of control, 8 day","human CD34+ stem cells; 40 μM compound, total colonies at 8 days, mean N=2",70 % of control
same,decrease of BFU-E compared to control,"human CD34+ stem cells; 40 μM, 14 day",97.1 ± 4.1%
same,decrease of CFU-G/M compared to control,"human CD34+ stem cells; 40 μM, 14 day",49.8 ± 0.0%
same,increase of CFU-GEMM compared to control,"human CD34+ stem cells; 40 μM, 14 day",16.1 ± 12.0%
same,inhibition of 14-day total colony formation,"human CD34+ stem cells; 40 μM, 14 day",42.6 ± 5.8%
